pKi: −log10 of the molar value.

This experiment deals with T1, Progesterone Receptor (PR) (Homo sapiens, UniProt P06401).
T1 construct: endogenous in cells; host or cells: T47D human breast mammary carcinoma cells
T1 sequence (P06401 1-933): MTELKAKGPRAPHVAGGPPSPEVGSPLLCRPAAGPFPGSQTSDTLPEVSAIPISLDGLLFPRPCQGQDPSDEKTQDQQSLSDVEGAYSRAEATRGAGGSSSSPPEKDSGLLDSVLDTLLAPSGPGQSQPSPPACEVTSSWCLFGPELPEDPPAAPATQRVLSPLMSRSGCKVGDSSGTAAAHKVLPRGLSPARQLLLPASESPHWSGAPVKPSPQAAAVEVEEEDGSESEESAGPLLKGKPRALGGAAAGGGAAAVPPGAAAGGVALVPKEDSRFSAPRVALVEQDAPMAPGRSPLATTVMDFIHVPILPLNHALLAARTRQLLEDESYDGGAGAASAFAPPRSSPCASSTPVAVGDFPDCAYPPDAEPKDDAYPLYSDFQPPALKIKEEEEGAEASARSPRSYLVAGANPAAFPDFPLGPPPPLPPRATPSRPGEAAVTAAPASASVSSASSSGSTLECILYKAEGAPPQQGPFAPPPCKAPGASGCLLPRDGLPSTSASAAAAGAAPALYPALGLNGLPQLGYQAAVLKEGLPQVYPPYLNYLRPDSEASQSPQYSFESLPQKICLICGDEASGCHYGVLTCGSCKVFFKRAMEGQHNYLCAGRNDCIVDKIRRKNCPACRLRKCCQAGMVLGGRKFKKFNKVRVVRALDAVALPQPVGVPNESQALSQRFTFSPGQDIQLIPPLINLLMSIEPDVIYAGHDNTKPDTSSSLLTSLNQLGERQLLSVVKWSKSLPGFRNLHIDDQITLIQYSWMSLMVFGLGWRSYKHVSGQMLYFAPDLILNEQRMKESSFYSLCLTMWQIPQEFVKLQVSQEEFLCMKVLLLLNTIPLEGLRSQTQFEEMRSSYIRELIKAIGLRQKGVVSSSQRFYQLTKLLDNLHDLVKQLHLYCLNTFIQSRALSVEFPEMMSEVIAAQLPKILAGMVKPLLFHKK
Kind of experiment: In vitro functional assay for progesterone receptor (PR) antagonists: inhibition of progesterone-induced alkaline phosphatase expression in T47D cells. In kind it is cell-based. The following applies: antagonist format, 5 nM progesterone, Ki calculated from IC50 with the Cheng-Prusoff equation. From the text:
1.0 In vitro Functional Assay for Progesterone Receptor (PR) Antagonists, Agonists and Modulators
The assay for PR antagonism takes advantage of the extensively reported modulation of alkaline phosphatase (AP) expression in human breast T47D mammary carcinoma cells {Beck et al., D. P. (1993). The progesterone antagonist RU486 acquires agonist activity upon stimulation of cAMP signalling pathways. Proc Natl Acad Sci USA 90, 4441-4445; Fensome et al. (2002). New progesterone receptor antagonists: 3,3-disubstituted-5-aryloxindoles. Bioorg Med Chem Lett 12, 3487-3490; Zhang et al., (2002a). 6-Aryl-1,4-dihydro-benzo d1,3oxazin-2-ones: a novel class of potent, selective, and orally active nonsteroidal progesterone receptor antagonists. Journal of Medicinal Chemistry 45, 4379-4382; Zhang et al., (2003). Novel 6-aryl-1,4-dihydrobenzo d oxazine-2-thiones as potent, selective, and orally active nonsteroidal progesterone receptor agonists. Bioorganic & Medicinal Chemistry Letters 13, 1313-1316; Zhang et al., (2002b). Potent nonsteroidal progesterone receptor agonists: synthesis and SAR study of 6-aryl benzoxazines. Bioorganic & Medicinal Chemistry Letters 12, 787-790; Zhang, Z. et al., (2000). In vitro characterization of trimegestone: a new potent and selective progestin. Steroids 65, 637-643}. […] In the absence of progesterone any agonist activity is also observed as an induction of AP activity. By running the assay in two formats (+/−progesterone (P4)), compounds behaving as PR antagonists, agonists, partial agonists or modulators with mixed agonist/antagonist activity can be identified.
Briefly, T47D cells are grown by propagating in DMEM with phenol red+10% FCS+2 mM Glutamine at 37° C./5% CO2. At 70-80% confluence, the media is exchanged for phenol red free DMEM+5% CS-FCS (Assay media). Cells are incubated overnight in assay media then harvested and frozen in assay media containing 10% DMSO at 1.5e7 cells/mL in 2 mL aliquots using a Planer and immediately stored in liquid nitrogen. Vials are removed from liquid nitrogen storage and immediately thawed in a water bath at 37° C. The cell suspension is added dropwise to 20 mL of assay media, then the tube centrifuged at 1000 rpm for 4 minutes, the supernatant is discarded and the pellet re-suspended in 20 mL assay media. T47D cells are then plated at 8750 cells/well in 35 μL assay media in sufficient white solid 384 well TC plates for the assay. For the agonist format assay a further 10 μL of assay media is added to each well. These plates are then cultured for 3-6 hours at 37° C./5% CO2 before compound addition.
Test substances are prepared by in 100% DMSO, half log concentrations from 4 mM in 384 well plates 5 μL/well (referred to here as ‘grandmother plates’). Progesterone is 100 μM made up in ethanol and PBS (i.e. add 1 mL ethanol to progesterone initially to help dissolving) and stored in 0.5-1 mL aliquots at −20° C.
Using a multidrop (Thermolabsystems), 60 μL/well of buffer is added to a 384 well plate—this will be the ‘mother plate’. _Add 45 μL well buffer to grandmother plate using the multidrop (=400 μM 10% DMSO dilution). Mixed and spun to remove air bubbles. • 20 μL is taken from the grandmother plate (400 μM 10% DMSO) and added to the mother plate (=100 μM 2.5% DMSO). Mixed and spun to remove air bubbles Preparation of Max/Min:
Antagonist Min: (Checker Pattern on Plate Map) 1 μM RU-486 (FAC 0.1 μM) • 50 μL of 0.2 mM RU-486 • 10 mL Diluent Addition of Test Substance to Cell Plates • The PlateMate Plus was used to add 5 μL MAX/MIN to cell plates • Then 5 μL test substances are added from the mother plate (after removing max/min PlateMate tips: columns 1 and 24)
Addition of Agonist (5 nM Progesterone FAC) for Antagonist Format Only
25 nM progesterone in assay media is prepared from 100 μM stock (12.5 μL progesterone/50 mL media), from which 10 μL per well is transferred to the assay plate using the PlateMate Plus (already containing cells & compound). […]
One may read the pKi as the negative decadic logarithm of the Ki, by convention in mol/L. Consider `Cc1c(-c2ccc(C#N)cc2)nn(C2CCOC2)c1C(=O)NC[C@H](C)O` (mixture of isomers) [Example 78, 3-(4-Cyanophenyl)-N-[(2S)-2-hydroxypropyl]-4-methyl-1-(tetrahydrofuran-3-yl)-1H-pyrazole-5-carboxamide], for which the negative-log Ki (pKi) is 7.15.

As to `CCc1c(-c2ccc(C#N)cc2)nn(C(C)CC)c1C(=O)NC[C@@H](C)O` (mixture of isomers) [Example 107, 1-sec-Butyl-3-(4-cyanophenyl)-4-ethyl-N-[(2R)-2-hydroxypropyl]-1H-pyrazole-5-carboxamide], the pKi was 7.20.

Consider `CC(C)n1nc(-c2ccc(C#N)cc2)c(C2CC2)c1C(=O)NCC1CCCO1` (racemic) [Example 36, (+/−)-3-(4-Cyanophenyl)-4-cyclopropyl-1-isopropyl-N-(tetrahydrofuran-2-ylmethyl)-1H-pyrazole-5-carboxamide], for which the negative-log Ki (pKi) was 7.92.

Regarding `CC(NC(=O)c1c(C2CC2)c(-c2ccc(C#N)cc2)nn1C(C)C)c1cnn(C)c1` (racemic) [Example 39], the negative-log Ki (pKi) was 7.75.

As for `CC(C)n1nc(-c2ccc(C#N)cc2)c(C2CC2)c1C(=O)NC1CCCOC1` (racemic) [Example 40, (+/−)-3-(4-Cyanophenyl)-4-cyclopropyl-1-isopropyl-N-(tetrahydro-2H-pyran-3-yl)-1H-pyrazole-5-carboxamide], the pKi was 7.76.

For the compound `CC(C)n1nc(-c2ccc(C#N)cc2)c(C2CC2)c1C(=O)NC1CCC(=O)N(C)C1` (racemic) [Example 41, (+/−)-3-(4-Cyanophenyl)-4-cyclopropyl-1-isopropyl-N-(1-methyl-6-oxopiperidin-3-yl)-1H-pyrazole-5-carboxamide], the pKi is 7.60.

`CC(Cn1cccn1)NC(=O)c1c(C2CC2)c(-c2ccc(C#N)cc2)nn1C(C)C` (racemic) [Example 44, (+/−)-3-(4-Cyanophenyl)-4-cyclopropyl-1-isopropyl-N-[1-methyl-2-(1H-pyrazol-1-yl)ethyl]-1H-pyrazole-5-carboxamide]: the pKi was 7.39.

`CC(C)n1nc(-c2ccc(C#N)cc2)c(C2CC2)c1C(=O)NC1CNC(=O)C1` (racemic) [Example 45, (+/−)-3-(4-Cyanophenyl)-4-cyclopropyl-1-isopropyl-N-[(3R)-5-oxopyrrolidin-3-yl]-1H-pyrazole-5-carboxamide]: the pKi is 6.98.

For the compound `CC(C)n1nc(-c2ccc(C#N)cc2)c(C2CC2)c1C(=O)NC1CCS(=O)(=O)C1` (racemic) [Example 57, (+/−)-3-(4-Cyanophenyl)-4-cyclopropyl-N-(1,1-dioxidotetrahydro-3-thienyl)-1-isopropyl-1H-pyrazole-5-carboxamide], the negative-log Ki (pKi) is 8.13.

With `CCNC(=O)c1c(C)c(-c2ccc(C#N)cc2)nn1C1CCOC1` (racemic) [Example 76, 3-(4-Cyanophenyl)-N-ethyl-4-methyl-1-(tetrahydrofuran-3-yl)-1H-pyrazole-5-carboxamide], the pKi is 7.57.

Turning to `Cc1c(-c2ccc(C#N)cc2)nn(C2CCOC2)c1C(=O)NC(C)C` (racemic) [Example 77, 3-(4-Cyanophenyl)-N-isopropyl-4-methyl-1-(tetrahydrofuran-3-yl)-1H-pyrazole-5-carboxamide], the pKi was 7.55.

On to `Cc1c(-c2ccc(C#N)cc2)nn(C2CCOC2)c1C(=O)NCC(C)(C)O` (racemic) [Example 80, 3-(4-Cyanophenyl)-N-(2-hydroxy-2-methylpropyl)-4-methyl-1-(tetrahydrofuran-3-yl)-1H-pyrazole-5-carboxamide], for which the pKi was 6.86.

Take `CCc1c(-c2ccc(C#N)cc2)nn(C(C)CC)c1C(=O)NCC1CC1` (racemic) [Example 101, (+/−)-1-sec-Butyl-3-(4-cyanophenyl)-N-(cyclopropylmethyl)-4-ethyl-1H-pyrazole-5-carboxamide]: the pKi is 8.12.

Regarding `CCc1c(-c2ccc(C#N)cc2)nn(C(C)CC)c1C(=O)NC(C)C` (racemic) [Example 102, (+/−)-1-sec-Butyl-3-(4-cyanophenyl)-4-ethyl-N-isopropyl-1H-pyrazole-5-carboxamide], the pKi was 7.83.

The values are drawn from patent publication US8232269B2, “Amide compounds useful in therapy” (Pfizer Inc., priority 2008, dated 2012).
